In patent publication US20140024662A1, “COMPOUNDS, SCREENS, AND METHODS OF TREATMENT” (Shanghai Institute of Organic Chemistry, priority 2006, published 2014):
pEC50: −log10 of the molar value. “Also recorded” adds a separate entry of the source. Read-outs that look alike come from different tables or passages of the source.

Tested on: FADD-deficient Jurkat cells
Test: necroptosis assay: FADD-deficient Jurkat cells treated with TNFα, cell viability
Type: cell-based, human
Conditions: for activity in the necroptosis assay, in words / Max Prot: FADD-deficient Jurkat cells treated with TNFα; for Max Prot: max viability obtained in the presence of a compound; call rule not given here
From the text: Herein we describe the structure activity analysis of Nec-5 analogs.

[1] = effective concentration for half-maximum response, inhibition of necroptosis in FADD-deficient Jurkat cells treated with TNFα, read-out: EC50
[2] = effective concentration for half-maximum response, inhibition of necroptosis in FADD-deficient Jurkat cells treated with TNFα

Row | Compound | activity in the necroptosis assay, in words | Max Prot [%] | pEC50 [1] | EC50 [2] | other results
1 | COc1ccc(-n2c(SCC#N)nc3sc4c(c3c2=O)CCCC4)cc1 [Compound 1, 3-p-methoxyphenyl-5,6-tetra-methylenothieno-[2,3-d]-pyrimidin-4-one-2-mercaptoethylcyanide] | prevents the death | 100 |  |  | pEC50 (Homo sapiens, Jurkat): 6.62
2 | COc1ccc(-n2c(SC)nc3sc4c(c3c2=O)CCCC4)cc1 [Compound 6] | reserves its activity to a significant extent | 71 | 6.62 |  | 
3 | CCSc1nc2sc3c(c2c(=O)n1-c1ccc(OC)cc1)CCCC3 [Compound 7] |  |  |  | inactive | 
4 | CCCSc1nc2sc3c(c2c(=O)n1-c1ccc(OC)cc1)CCCC3 [Compound 8] |  |  |  | inactive | 
5 | CCCCSc1nc2sc3c(c2c(=O)n1-c1ccc(OC)cc1)CCCC3 [Compound 9] |  |  |  | inactive | 
6 | CCCCCSc1nc2sc3c(c2c(=O)n1-c1ccc(OC)cc1)CCCC3 [Compound 10] |  |  |  | inactive | 
7 | CCCCCCSc1nc2sc3c(c2c(=O)n1-c1ccc(OC)cc1)CCCC3 [Compound 11] |  |  |  | inactive | 
8 | C=CCSc1nc2sc3c(c2c(=O)n1-c1ccc(OC)cc1)CCCC3 [Compound 12] |  |  |  | inactive | 
9 | C#CCSc1nc2sc3c(c2c(=O)n1-c1ccc(OC)cc1)CCCC3 [Compound 13] | exhibited some activity | 80.7 | 5.22 |  | 
10 | COc1ccc(-n2c(SCc3ccccc3)nc3sc4c(c3c2=O)CCCC4)cc1 [Compound 14] | completely destroyed the activity |  |  | inactive | 
11 | COc1ccc(-n2c(SCc3ccc(C)cc3)nc3sc4c(c3c2=O)CCCC4)cc1 [Compound 15] |  |  |  | inactive | 
12 | COc1ccc(CSc2nc3sc4c(c3c(=O)n2-c2ccc(OC)cc2)CCCC4)cc1 [Compound 16] |  |  |  | inactive | 
13 | COc1ccc(-n2c(SCc3ccc([N+](=O)[O-])cc3)nc3sc4c(c3c2=O)CCCC4)cc1 [Compound 17] |  |  |  | inactive | 
14 | COc1ccc(-n2c(SCC(C)=O)nc3sc4c(c3c2=O)CCCC4)cc1 [Compound 18] |  |  |  | inactive | 
15 | COC(=O)CSc1nc2sc3c(c2c(=O)n1-c1ccc(OC)cc1)CCCC3 [Compound 19] | completely destroyed the activity |  |  | inactive | 
16 | COc1ccc(-n2c(SCC(N)=O)nc3sc4c(c3c2=O)CCCC4)cc1 [Compound 20] |  |  |  | inactive | 
17 | COc1ccc(-n2c(SC(C)=O)nc3sc4c(c3c2=O)CCCC4)cc1 [Compound 21] |  |  |  | inactive | 
18 | CCCC(=O)Sc1nc2sc3c(c2c(=O)n1-c1ccc(OC)cc1)CCCC3 [Compound 22] |  |  |  | inactive | 
19 | COc1ccc(-n2c(SC(=O)c3ccccc3)nc3sc4c(c3c2=O)CCCC4)cc1 [Compound 23] |  |  |  | inactive | 
20 | COc1ccc(-n2c(SCCC#N)nc3sc4c(c3c2=O)CCCC4)cc1 [Compound 24] | retained some activity | 70 | 5.28 |  | 
21 | COc1ccc(-n2c(SCCl)nc3sc4c(c3c2=O)CCCC4)cc1 [Compound 25] | exhibited some activity | 85 | 5.65 |  | 

Row | Compound | activity in the necroptosis assay, in words | Max Prot [%] | pEC50 [1] | EC50 [2] | other results
22 | COc1ccc(-n2c(SC[N+](=O)[O-])nc3sc4c(c3c2=O)CCCC4)cc1 [Compound 26] | completely destroyed the activity |  |  | inactive | 
23 | COc1ccc(-n2c(SCC(=O)Nc3ccccc3C(F)(F)F)nc3sc4c(c3c2=O)CCCC4)cc1 [Compound 27] |  |  |  | inactive | 
24 | COc1ccc(-n2c(SCC(C)O)nc3sc4c(c3c2=O)CCCC4)cc1 (centres unmarked) [Compound 28] |  |  |  | inactive | 
25 | COc1ccc(-n2c(SCC(=O)O)nc3sc4c(c3c2=O)CCCC4)cc1 [Compound 29] |  |  |  | inactive | 
26 | COc1ccc(-n2c([S+](C)[O-])nc3sc4c(c3c2=O)CCCC4)cc1 (centres unmarked) [Compound 30] | complete loss of activity |  |  | inactive | 
27 | COc1ccc(-n2c(S(C)(=O)=O)nc3sc4c(c3c2=O)CCCC4)cc1 [Compound 31] | complete loss of activity |  |  | inactive | 
28 | N#CCSc1nc2sc3c(c2c(=O)n1-c1ccccc1)CCCC3 [Compound 32] | inactive |  |  | inactive | 
29 | COc1ccccc1-n1c(SCC#N)nc2sc3c(c2c1=O)CCCC3 [Compound 33] |  | 51.2 | 4.75 |  | 
30 | COc1cccc(-n2c(SCC#N)nc3sc4c(c3c2=O)CCCC4)c1 [Compound 34] |  | 87.7 | 5.84 |  | 
31 | CCOc1ccc(-n2c(SCC#N)nc3sc4c(c3c2=O)CCCC4)cc1 [Compound 35] | retained some activity; also recorded: showed significant higher activity compared to compound (154) | 83.8 | 6.26 |  | 
32 | N#CCSc1nc2sc3c(c2c(=O)n1-c1ccc(OCc2ccccc2)cc1)CCCC3 [Compound 36] |  |  |  | inactive | 
33 | Cc1ccccc1-n1c(SCC#N)nc2sc3c(c2c1=O)CCCC3 [Compound 37] |  |  |  | inactive | 
34 | Cc1ccc(-n2c(SCC#N)nc3sc4c(c3c2=O)CCCC4)cc1 [Compound 38] | retained some activity | 48.6 | 5.74 |  | 
35 | N#CCSc1nc2sc3c(c2c(=O)n1-c1ccc(F)cc1)CCCC3 [Compound 39] | retained significant activity; also recorded: showed substantial activity; also recorded: decreased activity | 85.1 | 6.62 |  | 
36 | N#CCSc1nc2sc3c(c2c(=O)n1-c1cccc(Cl)c1)CCCC3 [Compound 40] |  | 66.9 | 5.29 |  | 
37 | N#CCSc1nc2sc3c(c2c(=O)n1-c1ccc(Cl)cc1)CCCC3 [Compound 41] | activity significantly decreased | 55.0 | 5.07 |  | 
38 | N#CCSc1nc2sc3c(c2c(=O)n1-c1ccc(Br)cc1)CCCC3 [Compound 42] | activity significantly decreased |  |  | inactive | 
39 | Cc1ccc(-n2c(SCC#N)nc3sc4c(c3c2=O)CCCC4)cc1C [Compound 43] |  | 45.0 | 4.78 |  | 
40 | N#CCSc1nc2sc3c(c2c(=O)n1-c1ccc(Cl)c(Cl)c1)CCCC3 [Compound 44] |  | 39.0 | 5.24 |  | 
41 | N#CCSc1nc2sc3c(c2c(=O)n1-c1ccc(F)c(F)c1)CCCC3 [Compound 45] |  |  |  | inactive | 
42 | COc1ccc(-n2c(SCC#N)nc3sc4c(c3c2=O)CCCC4)c(OC)c1 [Compound 46] | eliminated activity |  |  | inactive | 

Row | Compound | activity in the necroptosis assay, in words | Max Prot [%] | pEC50 [1] | EC50 [2] | other results
43 | COc1ccc(-n2c(SCC#N)nc3sc4c(c3c2=O)CCCC4)cc1OC [Compound 47] |  | 57.0 | 5.24 |  | 
44 | N#CCCSc1nc2sc3c(c2c(=O)n1-c1ccc2c(c1)OCO2)CCCC3 [Compound 48, 3-(3′,4′)-methylene-dioxyphenyl-5,6-tetramethylenothieno[2,3-d]pyrimidin-4-one-2-mercaptoethylcyanide] | showed good activity; also recorded: showed substantial activity; also recorded: showed significant activity | 100 | 6.05 |  | 
45 | CSc1ccc(-n2c(SCC#N)nc3sc4c(c3c2=O)CCCC4)cc1 [Compound 49] |  | 70.0 | 5.63 |  | 
46 | Cc1cc(Cl)ccc1-n1c(SCC#N)nc2sc3c(c2c1=O)CCCC3 [Compound 50] |  |  |  | inactive | 
47 | N#CCSc1nc2sc3c(c2c(=O)n1-c1ccc(OC(F)(F)F)cc1)CCCC3 [Compound 51] | loss of activity |  |  | inactive | 
48 | CSc1nc2sc3c(c2c(=O)n1-c1ccc(OCc2ccccc2)cc1)CCCC3 [Compound 52] |  |  |  | inactive | 
49 | CSc1nc2sc3c(c2c(=O)n1-c1ccc(F)cc1)CCCC3 [Compound 53] | showed some activity | 61.2 | 5.80 |  | 
50 | CSc1nc2sc3c(c2c(=O)n1-c1ccc(Br)cc1)CCCC3 [Compound 54] |  |  |  | inactive | 
51 | CSc1nc2sc3c(c2c(=O)n1-c1ccc(C)c(C)c1)CCCC3 [Compound 55] |  | 38.0 | 4.78 |  | 
52 | CSc1nc2sc3c(c2c(=O)n1-c1ccc(Cl)c(Cl)c1)CCCC3 [Compound 56] |  |  |  | inactive | 
53 | COc1ccc(-n2c(SC)nc3sc4c(c3c2=O)CCCC4)c(OC)c1 [Compound 57] |  |  |  | inactive | 
54 | COc1ccc(-n2c(SC)nc3sc4c(c3c2=O)CCCC4)cc1OC [Compound 58] | showed some activity | 54.5 | 4.78 |  | 
55 | CSc1nc2sc3c(c2c(=O)n1-c1ccc2c(c1)OCO2)CCCC3 [Compound 59] |  |  |  | inactive | 
56 | CSc1cccc(-n2c(SC)nc3sc4c(c3c2=O)CCCC4)c1 [Compound 60] |  |  |  | inactive | 
57 | CSc1nc2sc3c(c2c(=O)n1-c1ccc(Cl)cc1C)CCCC3 [Compound 61] |  |  |  | inactive | 
58 | CSc1nc2sc3c(c2c(=O)n1-c1ccc(OC(F)(F)F)cc1)CCCC3 [Compound 62] |  |  |  | inactive | 
59 | COc1ccc(-n2c(SCC#N)nc3sc(C)cc3c2=O)cc1 [Compound 64] |  |  |  | inactive | 
60 | CCc1cc2c(=O)n(-c3ccc(OC)cc3)c(SCC#N)nc2s1 [Compound 65] |  |  |  | inactive | 
61 | COc1ccc(-n2c(SCC#N)nc3scc(C)c3c2=O)cc1 [Compound 66] |  |  |  | inactive | 
62 | COc1ccc(-n2c(SCC#N)nc3sc(C)c(C)c3c2=O)cc1 [Compound 67] | a high degree of activity is retained; also recorded: showed substantial activity; also recorded: showed significant higher activity compared to compound (154) | 100 | 6.35 |  | 
63 | CCc1sc2nc(SCC#N)n(-c3ccc(OC)cc3)c(=O)c2c1C [Compound 68] |  | 86.8 | 5.28 |  | 
